Measured values: patent US20120329721A1, “MEANS FOR PREVENTING AND TREATING CELLULAR DEATH AND THEIR BIOLOGICAL APPLICATIONS” (CHIESI FARMACEUTICI S.P.A., priority 2003, published 2012)
Where two headings read alike, the source gives them in different places. Starred links: 1 amine or outer side, 2 acyl side, 3 side chain; linkers in the order of their positions; H or OH if unused. Positions of bridges follow the written chain, without caps; N, C: chain ends. Non-standard residues stand in square brackets, D forms with d. Residues, ends and D or L forms follow the SMILES beside them. Chains are numbered I, II in the order given. *: point of attachment. Actinocin(9to1) = Cc1c2oc3c(C)ccc(C(=O)[*:1])c3nc-2c(C(=O)[*:2])c(N)c1=O; X1 = COC(=O)C[C@H](N*)C(=O)COc1c(F)cccc1F; Sta = CC(C)C[C@H](N)[C@@H](O)CC(=O)O; Quinaldoyl = O=C(c1ccc2ccccc2n1)*; NMeV = CN[C@H](C(=O)O)C(C)C; Isovaleryl = CC(C)CC(=O)*; Cbz = O=C(OCc1ccccc1)*; Sar = CNCC(=O)O; CH2F = FC*

Tests used:
primary cortical neurons [1] = assay type: cell-based
primary cortical neurons [2] = experiment: Real-time FC and fixed-time FM detection of ΔΨm and PMP in neurons treated with neurotoxic molecules; assay type: cell-based, mouse; conditions: for ΔΨm and PMP state of non-trypsinized neurons (FM): FM co-detection JC-1/7-AAD, 45 minutes (mClCCP 100 μM, 30 min)
caspase-3 = experiment: In cellula caspase-3 like activity (FAM-DEVD-FMK FLICA or anti-cleaved caspase-3 antibody) in SD-neurons; assay type: cell-based, mouse; conditions: 24 hr-SD; inhibitors 100 μM (BA 25 μM)
caspase-9 = experiment: In cellula caspase-9 like activity (FAM-LEHD-FMK FLICA) in SD-neurons; assay type: cell-based, mouse; conditions: 24 hr-SD; inhibitors 100 μM (BA 25 μM)
Procedure: Neurons were incubated with 1/150 of the DMSO stock solution of the FLICA for 1 hr at 37° C. 7-AAD and Hoechst were added during the last 15 min. Then neurons were washed three times in washing buffer (CaspaTag™ Kit). […] Cleaved caspase-3 was evidenced in cellula by immunodetection using Phycoerythrin (PE)-conjugated polyclonal antibodies (Beckton Dickinson). Neurons were stained by 7-AAD, trypsinized and fixed in PBS containing 1% PFA and 20 μg/ml Actinomycin D (AD) for 20 min. […] After washings in PBS, PE-related fluorescence was analysed on the cytometer (Fl-2 channel). Z-val-Ala-Asp(OMe)-FMK (Z-VAD-FMK), Quinoline-Val-Asp (OMe)-CH2-O-Ph (Q-VD-OPH), Z-DEVD-FMK ([…], ICN) and Z-LEHD-FMK ([…], all purchased from ICN (Orsay, France), and 4-(2-Aminoethyl)benzenesulfonyl fluoride (AEBSF, Pefabloc SC, Roche, Meylan, France) were added at 100 μM at the initiation of serum deprivation. Sulforhodamine-DEVD-FMK, (CaspaTag™ Red Activity Kit) permitted to detect activated caspase-3 and FITC-Annexin V. Neurons were incubated with 1/900 of the DMSO stock solution of the FLICA, and 1× FITC-annexin V in 200 μl of annexin-buffer for 30 min at 37° C. Then neurons were washed three times in a buffer composed of 50% washing buffer and 50% annexin-buffer. […] For FM, FLICA was excited through the BP515-560 filter and its fluorescence was collected through the LP590 long pass emission filter.
Neurons were loaded with 1 μM JC-1 for 30 min at 37° C. […] JC-1 monomers were detected in the Fl-1 channel by FC. […] Activated caspase-2, -3, -8 and -9 were detected using specific FAM-conjugated peptides (called Fluorochrome Labeled Inhibitor of Caspase, FLICA: CaspaTag™ fluorescein Caspase Activity Kits, Q-Biogen, Illkirch, France; ApoFluor™ Caspase Detection Kits, ICN, Orsay, France): FAM-VDVAD-FMK, FAM-DEVD-FMK, FAM-LETD-FMK and FAM-LEHD-FMK, respectively. Neurons were incubated with FLICAs (1:150, CaspaTag™ or 1:500, ApoFluor™) for 1 hr at 37° C., then washed three times in washing buffer. […] Phosphatidylserine (PS) exposure to the outer leaflet of the plasma membrane was detected through the fixation of FITC conjugated-annexin V (Immunotech).

Jurkat cells = experiment: VP16-induced cell death of Jurkat cells, cytoprotection assay; assay type: cell-based, human; conditions: VP16 10 μM, 7-8 hrs; inhibitors 50 μM
[3] = molecular target: T1, human recombinant caspase-2 (Homo sapiens, UniProt P42575); experiment: In vitro VDVAD-AMC cleavage by recombinant caspase-2; assay type: biochemical; conditions: inhibitor 2 μM, 50 μM VDVAD-AMC, caspase-2 125 U, 30 min at 37° C.
T1 construct: purchased BIOMOL
T1 sequence (P42575 170-325 limits assumed): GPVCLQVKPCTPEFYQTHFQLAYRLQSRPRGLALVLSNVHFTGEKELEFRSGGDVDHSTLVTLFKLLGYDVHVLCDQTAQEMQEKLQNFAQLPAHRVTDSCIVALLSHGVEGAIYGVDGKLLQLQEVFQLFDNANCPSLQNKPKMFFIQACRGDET
T1 sequence (P42575 348-452 limits assumed): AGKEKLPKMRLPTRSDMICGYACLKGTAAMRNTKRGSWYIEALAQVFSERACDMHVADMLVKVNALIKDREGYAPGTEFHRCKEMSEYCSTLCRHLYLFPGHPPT
Procedure: Activity of human recombinant caspase-2 (BIOMOL QuantiZyme™ Assay System) was assessed in 100 μl assay buffer (50 mM HEPES, pH 7.4, 100 mM NaCl, 0.1% CHAPS, 10 mM DTT, 1 mM EDTA, 10% glycerol).

[4] = tested on: neonatal ischemic brain injury in 7 day-old rats
[5] = SD model, compound added at the start of SD at the concentration of column '[ ], μM' (first concentration/target where two are printed)

N-benzyloxycarbonyl-Phe-Ala-fluoromethylketone [z-FA-fmk]
Survival (primary cortical neurons [1]; [5]): No

O=S(=O)([O-])c1cc(N=C=S)ccc1C=Cc1ccc(N=C=S)cc1S(=O)(=O)[O-].[Na+].[Na+] [DIDS, 4,4′-Diisothiocyanastilbene-2,2′-disulfonic acid disodium salt]
Survival (primary cortical neurons [1]; [5]): No

C=C1[C@@H](O)[C@@H]2O[C@]3(CC[C@H](/C=C/[C@@H](C)[C@@H]4CC(C)=C[C@@]5(O[C@H](C[C@@](C)(O)C(=O)O)CC[C@H]5O)O4)O3)CC[C@H]2O[C@@H]1[C@@H](O)C[C@H](C)[C@H]1O[C@@]2(CCCCO2)CC[C@H]1C [Okadaic acid]
Survival (primary cortical neurons [1]; [5]): No

CC(=O)Oc1ccccc1C(=O)O [Aspirin]
Survival (primary cortical neurons [1]; [5]): No

CC[C@H](CO)Nc1nc(NCc2ccccc2)c2ncn(C(C)C)c2n1 [Roscovitine]
Survival (primary cortical neurons [1]): No

CO/C1=C\C(C)=C\[C@@H](C)[C@@H](O)[C@@H](C)C/C(C)=C/C=C/[C@H](OC)[C@@H]([C@@H](C)[C@@H](O)[C@H](C)[C@@]2(O)C[C@@H](O)[C@H](C)[C@@H](C(C)C)O2)OC1=O [Bafilomycin A1]
Survival (primary cortical neurons [1]; [5]): No

CC(C)CC(=O)N[C@H](C(=O)N[C@H](C(=O)N[C@@H](CC(C)C)[C@@H](O)CC(=O)N[C@@H](C)C(=O)N[C@@H](CC(C)C)[C@@H](O)CC(=O)O)C(C)C)C(C)C [Pepstatin] (Isovaleryl-VV[Sta]A[Sta]-OH)
Survival (primary cortical neurons [1]; [5]): No

O=c1c(-c2ccc(O)cc2)coc2cc(O)cc(O)c12 [Genistein]
Survival (primary cortical neurons [1]): No

CC1CNCCN1S(=O)(=O)c1cccc2cnccc12 (stereo not shown) [H-7]
Survival (primary cortical neurons [1]; [5]): No

Oc1ccc(-c2nc(-c3ccncc3)c(-c3ccc(F)cc3)[nH]2)cc1 [SB 202190]
Survival (primary cortical neurons [1]; [5]): No

CCCCCCCCCCC1=C(C)C(=O)C(OC)=C(OC)C1=O [Decyl-Ubiquinone]
Survival (primary cortical neurons [1]; [5]): No

CCO [ethanol]
ΔΨm and PMP state of non-trypsinized neurons (FM) (primary cortical neurons [2]): induces a rapid PMP
PMP (primary cortical neurons [2]; real-time FC, after 5 minutes): 98%
ΔΨm loss (primary cortical neurons [2]; real-time FC, after 5 minutes): 75%

CO[C@H](C/C=C\C=C\CC/C=C/C[C@H](C)/C=C/C(=C\C(=O)O)CC(=O)O)/C(C)=C\C=C(/C)C(=O)O [BA, bongkrekic acid]
caspase-3 like activity / activation in SD-neurons (caspase-3): strongly prevent
caspase-9 like activity / activation in SD-neurons (caspase-9): prevents caspase-9 like activation
terminal nuclear alterations and PMP in VP16-treated Jurkat cells (Jurkat cells): attenuates
ΔΨm loss in VP16-treated Jurkat cells (Jurkat cells): attenuates
survival / protection of SD-neurons against cell death (apoptosis hallmarks overall) (primary cortical neurons [1]): Neuroprotection
ΔΨm loss (drop) in SD-neurons (primary cortical neurons [1]; 24 hr-SD, JC-1, inhibitors 100 μM (BA 25 μM)): inhibited
degradation phase of apoptosis: PS exposure, nuclear apoptosis (NA), PMP in SD-neurons (primary cortical neurons [1]; 24 hr-SD, inhibitors 100 μM (BA 25 μM)): strongly prevent

Cc1c2oc3c(C)ccc(C(=O)N[C@@H]4C(=O)N[C@H](C(C)C)C(=O)N5CCC[C@H]5C(=O)N(C)CC(=O)N(C)[C@@H](C(C)C)C(=O)O[C@@H]4C)c3nc-2c(C(=O)N[C@@H]2C(=O)N[C@H](C(C)C)C(=O)N3CCC[C@H]3C(=O)N(C)CC(=O)N(C)[C@@H](C(C)C)C(=O)O[C@@H]2C)c(N)c1=O [Actinomycin D] (I: T[dV]P[Sar][NMeV] / II: T[dV]P[Sar][NMeV]; ester I:1-I:C, II:1-II:C; linker I:N-II:N via Actinocin(9to1))
terminal nuclear alterations and PMP in VP16-treated Jurkat cells (Jurkat cells): prevent neither ΔΨm loss nor PMP
ΔΨm loss in VP16-treated Jurkat cells (Jurkat cells): prevent neither ΔΨm loss nor PMP
survival / protection of SD-neurons against cell death (apoptosis hallmarks overall) (primary cortical neurons [1]): promote survival
Survival (primary cortical neurons [1]; [5]): Yes

CC(=O)N[C@H](C(=O)N[C@@H](CC(=O)O)C(=O)N[C@H](C(=O)N[C@@H](C)C(=O)N[C@H](C=O)CC(=O)O)C(C)C)C(C)C [Ac-VDVAD-Cho] (Ac-VDVAD-aldehyde)
inhibition of VDVAD-AMC cleavage by recombinant caspase-2 [3]: blocked

COc1cccc(-c2cc(=O)c3ccccc3o2)c1N [PD 98059]
Survival (primary cortical neurons [1]; [5]): No

O=C(NC(Cc1ccccc1)C(=O)NC(Cc1ccccc1)C(=O)CF)OCc1ccccc1 (stereo not drawn) [z-FF-fmk, N-benzyloxycarbonyl-Phe-Phe-fluoromethylketone] (Cbz-Phe-Phe-CH2F; configuration not given here)
Survival (primary cortical neurons [1]; [5]): No

N[C@@H](CCC(=O)N[C@@H](CS)C(=O)NCC(=O)O)C(=O)O [glutathion]
Survival (primary cortical neurons [1]; [5]): No

CCC(=C/[C@H](C)C/C=C/C(C)=C/[C@@H](C)C(=O)[C@@H](C)[C@H](O)[C@@H](C)C/C(C)=C/C(=O)O)/C=C/[C@@H]1OC(=O)C=C[C@@H]1C [Leptomycin B]
Survival (primary cortical neurons [1]; [5]): No

Cn1cnc(N)c2ncnc1-2 [3-Methyladenine]
Survival (primary cortical neurons [1]; [5]): No

CC(C)[C@H](CO)Nc1nc(Nc2cc(N)cc(Cl)c2)c2ncn(C(C)C)c2n1 [Aminopurvalanol]
Survival (primary cortical neurons [1]; [5]): No

Ruthenium Red
Survival (primary cortical neurons [1]; [5]): No

Cc1c(C)c2c(c(C)c1O)CCC(C)(C(=O)O)O2 (stereo not shown) [Trolox ®]
Survival (primary cortical neurons [1]; [5]): No

COC(=O)C[C@H](NC(=O)[C@H](C)NC(=O)[C@@H](NC(=O)[C@H](CC(=O)OC)NC(=O)[C@@H](NC(=O)c1ccc2ccccc2n1)C(C)C)C(C)C)C(=O)COc1c(F)cccc1F [Q-VDVAD-OPH, Quinolinylcarnonyl-L-Valinyl-L-Aspartyl (methyl ester)-X-Vanilyl-L-Alaninyl-L-Aspartyl (methyl ester) 2,6-difluorophenyl ester] (Quinaldoyl-VD(OMe)VA-X1)
infarct volume (% damage in the lesioned ipsilateral hemisphere) ([4]; single i.p. dose before ischemia, 48 hours, mean ±SEM): 5.7±2.3%
reduction in infarct volume ([4]; single i.p. dose before the ischemic onset, 48 hours after ischemia, vs ischemic control): 74%
animals (of the 12 studied) with a very marked smaller infarct ([4]; single i.p. dose, 48 hours): 8
mean infarct of the four other animals ([4]; single i.p. dose, 48 hours): 16.5±1.32%
median infarct of the 8 animals with a very marked smaller infarct ([4]; single i.p. dose, 48 hours): 0.5%
animals that exhibited no infarct ([4]; single i.p. dose, 48 hrs after ischemia): 8
survival / protection of SD-neurons against cell death (apoptosis hallmarks overall) (primary cortical neurons [1]): promotes survival of cortical neurons
inhibition of VDVAD-AMC cleavage by recombinant caspase-2 [3]: blocked

N#CC(C#N)=NNc1cccc(Cl)c1 [mClCCP, carbonyl cyanide m-chlorophenylhydrazone]
ΔΨm and PMP state of non-trypsinized neurons (FM) (primary cortical neurons [2]): induces ΔΨm disruption
time of treatment at which ΔΨm loss of neuronal population is maximal (primary cortical neurons [2]; real-time FC, 100 μM): 2 min

C[C@@H]1C[C@@H]([C@H](O)CC2CC(=O)NC(=O)C2)C(=O)[C@@H](C)C1 [Cycloheximide]
terminal nuclear alterations and PMP in VP16-treated Jurkat cells (Jurkat cells): prevent neither ΔΨm loss nor PMP
ΔΨm loss in VP16-treated Jurkat cells (Jurkat cells): prevent neither ΔΨm loss nor PMP
survival / protection of SD-neurons against cell death (apoptosis hallmarks overall) (primary cortical neurons [1]): promote survival
Survival (primary cortical neurons [1]; [5]): Yes

CN1CC=C(c2ccccc2)CC1 [MPTP, 1-methyl-4-phenyl-1,2,3,6-tetrahydropyridine]
ΔΨm and PMP state of non-trypsinized neurons (FM) (primary cortical neurons [2]): most neurons are ΔΨm low without any sign of PMP
ΔΨm low neurons (primary cortical neurons [2]; real-time FC, after 15 minutes of treatment): 49.6%

CC(=O)N[C@@H](CS)C(=O)O [N-Acetyl-Cystein]
Survival (primary cortical neurons [1]; [5]): No

CC(=O)OCOC(=O)CN(CC(=O)OCOC(C)=O)c1ccccc1OCCOc1ccccc1N(CC(=O)OCOC(C)=O)CC(=O)OCOC(C)=O [BAPTA-AM, acetoxymethyl ester of 1,2-bis(2-aminophenoxy)ethane-N,N,N′,N′-tetraacetic acid]
Survival (primary cortical neurons [1]): No
